“Also recorded” adds a separate entry of the source.
Key:
female 129S6/SvEv mice = assay: Forced swim test (FST), immobility time, after stress; details: for Immobility in the FST (Day 1 and Day 2) vs saline: drug administered 1 hour after 3-shock CFC stressor; for Prophylactic efficacy against stress-induced depressive-like behavior: single injection 1 week before stressor
mice = details: sub-anesthetic doses; cited from earlier work
male mice = details: as previously shown; cited from earlier work
[1] = Ovariectomized cohort, 1 week prophylactic drug, Forced Swim Test Day 1, Sham mice, K (10), (2R,6R)-HNK (0.025)
[2] = Ovariectomized cohort, 1 week prophylactic drug, Forced Swim Test Day 1, Sham vs OVX, same drug, K (10), (2R,6R)-HNK (0.025)
[3] = Ovariectomized, E2/P4 replacement, 1 week prophylactic drug, Forced Swim Test Day 2, K (10), (2R,6R)-HNK (0.025), FIG. 5F
[4] = Ovariectomized, same drug, hormone Vehicle vs. E2/P4 replacement, 1 week prophylactic drug, Forced Swim Test Day 2, K (10), (2R,6R)-HNK (0.025), FIG. 5F
[5] = Sal vs. K (2.5), Fisher's PLSD, 3 day prophylactic drug/Forced Swim Test Day 1
[6] = Sal vs. K (10), Fisher's PLSD, 1 week prophylactic drug, learned helplessness stress, Forced Swim Test Day 1
[7] = Sal vs. K (10), Fisher's PLSD, 3 day prophylactic drug/Forced Swim Test Day 1
[8] = Sal vs. K (10), Fisher's PLSD, Antidepressant drug/Forced Swim Test Day 2
[9] = Sal vs. K (30), Fisher's PLSD, 3 day prophylactic drug/Forced Swim Test Day 1
[10] = Sham-operated females, 1 week prophylactic drug, Forced Swim Test Day 2, K (10), (2R,6R)-HNK (0.025), FIG. 5C
[11] = female mice, listed as (R, S)-ketamine

CNC1(c2ccccc2Cl)CCCCC1=O (racemic) [(R,S)-ketamine, (RS)-2-(2-chlorophenyl)-2-(methylamino)cyclohexanone]
* (significance), Immobility Time (min 1-6), Sham Sal vs Sham drug (female 129S6/SvEv mice; [1]): * (* p<0.05) | * (significance), Immobility Time Average (min 3-6), Fisher's PLSD, Sham Sal vs Sham drug (female 129S6/SvEv mice; [1]): * (* p<0.05) | p, Immobility Time (min 1-6), Sham Sal vs Sham drug (female 129S6/SvEv mice; [1]): 0.0140 | p, Immobility Time Average (min 3-6), Fisher's PLSD, Sham Sal vs Sham drug (female 129S6/SvEv mice; [1]): 0.0114 | * (significance), Immobility Time Average (min 3-6), Fisher's PLSD, Sham drug vs OVX drug (female 129S6/SvEv mice; [2]): * (* p<0.05) | p, Immobility Time (min 1-6), Sham drug vs OVX drug (female 129S6/SvEv mice; [2]): 0.0533 | p, Immobility Time Average (min 3-6), Fisher's PLSD, Sham drug vs OVX drug (female 129S6/SvEv mice; [2]): 0.0233 | p, Fisher's PLSD, Immobility Time Average (min 3-6), OVX Sal vs. OVX drug (female 129S6/SvEv mice; Ovariectomized females, 1 week prophylactic drug, Forced Swim Test Day 2, K (10), (2R,6R)-HNK (0.025), FIG. 5C): 0.7305 | p, Fisher's PLSD, Immobility Time Average (min 3-6), E2/P4 Sal vs. E2/P4 drug (female 129S6/SvEv mice; [3]): 0.0196 | significance (*), Fisher's PLSD, Immobility Time Average (min 3-6), E2/P4 Sal vs. E2/P4 drug (female 129S6/SvEv mice; [3]): * (* p<0.05) | p, Fisher's PLSD, Immobility Time Average (min 3-6), Vehicle Sal vs. Vehicle drug (female 129S6/SvEv mice; Ovariectomized, hormone Vehicle, 1 week prophylactic drug, Forced Swim Test Day 2, K (10), (2R,6R)-HNK (0.025), FIG. 5F): 0.9193 | p, Fisher's PLSD, Immobility Time Average (min 3-6), Vehicle drug vs. E2/P4 drug (female 129S6/SvEv mice; [4]): 0.0089 | significance (*), Fisher's PLSD, Immobility Time Average (min 3-6), Vehicle drug vs. E2/P4 drug (female 129S6/SvEv mice; [4]): ** (** p<0.01) | p, Immobility Time (min 1) (female 129S6/SvEv mice; [5]): 0.9401 | p, Immobility Time (min 2) (female 129S6/SvEv mice; [5]): 0.6027 | p, Immobility Time (min 3) (female 129S6/SvEv mice; [5]): 0.5146 | p, Immobility Time (min 4) (female 129S6/SvEv mice; [5]): 0.9632 | p, Immobility Time (min 5) (female 129S6/SvEv mice; [5]): 0.6706 | p, Immobility Time (min 6) (female 129S6/SvEv mice; [5]): 0.7202 | p, Immobility Time Average (min 3-6) (female 129S6/SvEv mice; [5]): 0.6884 | *, Immobility Time (min 1) (female 129S6/SvEv mice; [6]): *** (*** p<0.0001) | *, Immobility Time (min 2) (female 129S6/SvEv mice; [6]): ** (** p<0.01) | *, Immobility Time (min 3) (female 129S6/SvEv mice; [6]): ** (** p<0.01) | *, Immobility Time (min 4) (female 129S6/SvEv mice; [6]): ** (** p<0.01) | *, Immobility Time (min 5) (female 129S6/SvEv mice; [6]): ** (** p<0.01) | *, Immobility Time (min 6) (female 129S6/SvEv mice; [6]): *** (*** p<0.0001) | *, Immobility Time Average (min 1-6) (female 129S6/SvEv mice; [6]): *** (*** p<0.0001) | p, Immobility Time (min 1) (female 129S6/SvEv mice; [6]): <0.0001 | p, Immobility Time (min 2) (female 129S6/SvEv mice; [6]): 0.0002 | p, Immobility Time (min 3) (female 129S6/SvEv mice; [6]): 0.0002 | p, Immobility Time (min 4) (female 129S6/SvEv mice; [6]): 0.0090 | p, Immobility Time (min 5) (female 129S6/SvEv mice; [6]): 0.0016 | p, Immobility Time (min 6) (female 129S6/SvEv mice; [6]): 0.0001 | p, Immobility Time Average (min 1-6) (female 129S6/SvEv mice; [6]): <0.0001 | p, Immobility Time (min 1) (female 129S6/SvEv mice; [7]): 0.9371 | p, Immobility Time (min 2) (female 129S6/SvEv mice; [7]): 0.5853 | p, Immobility Time (min 3) (female 129S6/SvEv mice; [7]): 0.7490 | p, Immobility Time (min 4) (female 129S6/SvEv mice; [7]): 0.6033 | p, Immobility Time (min 5) (female 129S6/SvEv mice; [7]): 0.9482 | p, Immobility Time (min 6) (female 129S6/SvEv mice; [7]): 0.9756 | p, Immobility Time Average (min 3-6) (female 129S6/SvEv mice; [7]): 0.9690 | *, Immobility Time (min 1) (female 129S6/SvEv mice; [8]): * (* p<0.05) | p, Immobility Time (min 1) (female 129S6/SvEv mice; [8]): 0.0187 | p, Immobility Time (min 1) (female 129S6/SvEv mice; [9]): 0.6395 | p, Immobility Time (min 2) (female 129S6/SvEv mice; [9]): 0.9313 | p, Immobility Time (min 3) (female 129S6/SvEv mice; [9]): 0.7755 | p, Immobility Time (min 4) (female 129S6/SvEv mice; [9]): 0.5198 | p, Immobility Time (min 5) (female 129S6/SvEv mice; [9]): 0.9023 | p, Immobility Time (min 6) (female 129S6/SvEv mice; [9]): 0.5995 | p, Immobility Time Average (min 3-6) (female 129S6/SvEv mice; [9]): 0.8325 | p, Fisher's PLSD, Immobility Time Average (min 3-6), Sham drug vs. OVX drug (female 129S6/SvEv mice; Same drug, Sham vs. ovariectomized, 1 week prophylactic drug, Forced Swim Test Day 2, K (10), (2R,6R)-HNK (0.025), FIG. 5C): 0.2375 | p, Fisher's PLSD, Immobility Time Average (min 3-6), Sham Sal vs. Sham drug (female 129S6/SvEv mice; [10]): 0.0405 | significance (*), Fisher's PLSD, Immobility Time Average (min 3-6), Sham Sal vs. Sham drug (female 129S6/SvEv mice; [10]): * (* p<0.05) | Immobility in the FST (Day 1 and Day 2) vs saline (female 129S6/SvEv mice; female mice): Neither (R,S)-ketamine nor (2R,6R)-HNK significantly affected immobility time | Immobility in the FST (Day 1 and Day 2) vs saline (female 129S6/SvEv mice; [11]): did not reduce immobility levels | Prophylactically effective dose in females (female 129S6/SvEv mice; female mice, 1 week before stressor): 10 mg/kg | Immobility in the FST vs saline (female 129S6/SvEv mice; ovariectomized mice with cyclic E2 and P4 replacement, drug 1 week before CFC, listed as (R, S)-ketamine): significantly less immobile compared to control saline mice; also recorded: significantly reduced immobility | Prophylactic efficacy against stress-induced depressive-like behavior (female 129S6/SvEv mice; female mice): significantly reduced stress-induced depressive-like behavior; also recorded: significantly decreased stress-induced depressive-like behavior; also recorded: effective prophylactics against a variety of stressors; also recorded: protect against stress-induced depressive-like behavior | Prophylactic efficacy against stress-induced depressive-like behavior (female 129S6/SvEv mice; [11]): prophylactic against stress-induced depressive-like behavior | Antidepressant onset (mice): 30 min | Prophylactically effective dose in males (male mice): 30 mg/kg
